Source: patent US5994365A, “Substituted diazaanthracene compounds having pharmaceutical utility” (Diazans Limited, priority 1998, dated 1999)
Where “and” joins values, the source holds several entries; their conditions need not be identical. Equal entries are not always repeated.

Experiments:
[1] = system: β strep grp A; experiment: Broth microdilution (NCCLS guidelines), MIC; assay type: cell-based; conditions: Table A
Protocol: (§1) The dimer product of Example 15 was obtained in powder form. A stock solution of 1280 mg/L of the dimer in dimethylsulfoxide (DMSO) was prepared and stored at room temperature in a foil-wrapped screw-capped tube (10 ml). Subsequent dilutions were prepared using cation-adjusted Mueller-Hinton broth (50 mg/L Mg). […] It was resuspended upon mixing each time an aliquot was taken from the solution.
(§2) Approximately 100 varied bacterial isolates were initially collected for screening, along with 9 ATCC organisms. Forty additional strains of Staphylococcus species were subsequently screened. All isolates were identified according to generally accepted lab protocol.
(§3) Broth microdilution was performed according to NCCLS guidelines. Microdilution panels were prepared using doubling dilutions of the dimer in ~250 μl plastic, 96-well trays. Inoculum suspension equal to a 0.5 McFarland standard were further diluted and added to the microdilution trays to achieve a final inoculum of 5×10^5 CFU/ml (5×10^4 CFU/well). Colony counts were performed to confirm the final inoculum, as well as its purity. Each strain was also tested in a growth control well containing only MHB for viability.
(§4) Microdilution trays were incubated at 35° C. in ambient air or 5% CO2 as appropriate for 16-20 hours. After incubation, the minimal inhibitory concentration (MIC) was defined as the lowest concentration of the dimer with no evidence of growth. Since 10 or more strains of most organisms were tested; a range of MICs was determined for each organism, as well as the concentration of the dimer that inhibited 50% of the strains (MIC50) and the concentration of the dimer that inhibited 90% of the strains (MIC90).
(§5) **5% lysed horse blood in MHB (cation supplemented)

[2] = system: Strep pneumoniae; experiment: Broth microdilution (NCCLS guidelines), MIC; assay type: cell-based; conditions: Table A
Protocol: as §1, §2, §3, §4, §5

[3] = system: S. aureus ATCC 25923; experiment: Microbroth dilution assay of antimicrobial susceptibility (MIC); assay type: cell-based, Staphylococcus aureus; conditions: microdilution, CAMHB, 37° C., 18 hrs
Protocol: It is described below, using E. coli ATCC® 25922, S. aureus ATCC® 25923, and P. aeruginosa ATCC® 27853. Prepare 0.0128 g DAA in 10 mL dH2 O (or 95% EtOH, methanol or DMSO if H2 O insoluble)=1280 μg/mL (stock solution). Dilute DAA stock solution 1:10 with CAMHB (Cation-Adjusted Mueller Hinton Broth): 0.5 mL DAA stock solution+4.5 mL CAMHB=128 μg/mL (DAA working solution). Pipette 100 μl of sterile CAMHB per well into columns 2-12 of rows A-G using Eppendorf repeater pipette. Pipette 100 μl per well of sterile-filtered DAA working solution into columns 1 and 2 of rows A, C, E, G using Jensen electric pipette. Mix and transfer 100 μl from column 2 to 3 of rows A, C, E, G using Jensen pipette. Repeat to column 12 then discard 100 μl from column 12. Rows B, D and F are positive growth control lanes for each organism and contain only CAMHB and the organism--no DAA. Row H is the media additive control lane, if necessary (e.g. MeOH, EtOH, DMSO etc.). The concentration of the media additive is obtained by doing a 1:10 dilution of the additive with CAMHB (0.5 mL additive+4.5 mL CAMHB). Row G is considered to be "negative growth control" and is loaded with only CAMHB and the DAA. Inoculate 0.5 mL TSB (Trypticase Soy Broth) tubes with 3 single colonies each of E. coli, S. aureus, and P. Aeruginosa from TSA plates using sterile needle. Incubate @ 37° C. for 4-6 hr. Measure out 100 mL CAMHB using the sterile 100 mL volumetric flask. Pour the excess into a sterile reagent reservoir. Pipette 0.5 mL and discard, leaving 99.5 mL in each of the 3-Erlenmeyer flasks. Set aside. Use the excess CAMHB for the 1:10 dilution of inoculum: 0.5 mL inoculum+4.5 mL CAMHB. Perform a 1:200 dilution of inoculum: 0.5 mL of 1:10 diluted inoculum+99.5 mL CAMHB from previous step. Pipette 100 μl (using Eppendorf repeater pipette) E. coli into each well in columns 1-12 of rows A and B and columns 1-4 of row H (if media additive control lane necessary). Pipette 100 μl P. aeruginosa into each well in columns 1-12 of rows C and D and columns 5-8 of row H (if media additive control lane is necessary). Pipette 100 μl S. aureus into each well in columns 1-12 of rows E and F and columns 9-12 of row H (if media additive control lane is necessary). Incubate microtiter plates @ 37° C. for 18 hrs. The lowest concentration of antimicrobial agent that results in significant inhibition of visible growth represents the MIC (Minimal Inhibitory Concentration).

[4] = system: ATCC S. epid 14990; experiment: Minimal bactericidal concentration (MBC), 99.9% kill; assay type: cell-based
Protocol: as §3
Various isolates were also tested for minimal bactericidal concentration (MBC) (see Tables D and F).
Subbed 50 μl of ≤5 clear wells

[5] = system: Acinetobacter; experiment: Broth microdilution (NCCLS guidelines), MIC; assay type: cell-based; conditions: Table A, 5 strains
Protocol: as §1, §2, §3, §4

[6] = system: ATCC S. epid 14990; experiment: Broth microdilution (NCCLS guidelines), MIC; assay type: cell-based; conditions: for MICs: in µg/mL
Protocol: as §1, §2, §3, §4

[7] = system: Enterobacteriaceae; experiment: Broth microdilution (NCCLS guidelines), MIC; assay type: cell-based; conditions: Table A, 10 strains
Protocol: as §1, §2, §3, §4

[8] = system: B. cepacia; experiment: Broth microdilution (NCCLS guidelines), MIC; assay type: cell-based; conditions: Table A, 5 strains
Protocol: as §1, §2, §3, §4

[9] = system: Vancomycin susceptible Enterococcus (VSE); experiment: Broth microdilution (NCCLS guidelines), MIC; assay type: cell-based; conditions: Table A
Protocol: as §1, §2, §3, §4

[10] = system: Vancomycin resistant Enterococcus (VRE); experiment: Broth microdilution (NCCLS guidelines), MIC; assay type: cell-based; conditions: Table A
Protocol: as §1, §2, §3, §4

[11] = 10 strains, 5% lysed horse blood in MHB
[12] = Table G footnote, ATCC 14990 (coag neg staph)

Substance: 10,10'-bis(3,6-dimethyl-5,10-dihydro-1,8-diazaanthracen-5-one) and 5,5'-bis(3,6-dimethyl-5,10-dihydro-1,8-diazaanthracen-10-one) [Example 15]
- MIC50 [1, 11]: 32 µg/mL
- MIC90 [1, 11]: 64 µg/mL
- Range of MICs [1, 11]: 32 to 64 mg/L
- MIC ([1]; ATCC STRA 19615, 5% lysed horse blood in MHB): 32 µg/mL
- MIC50 [2, 11]: 8 µg/mL
- MIC90 [2, 11]: 16 µg/mL
- Range of MICs [2, 11]: 8 to 32 mg/L
- MIC ([2]; ATCC STRPNE 49619, 5% lysed horse blood in MHB): 2.0 µg/mL
- MIC [3]: 0.0625 µg/mL
- MBC ([4]; Table F, ATCC S. epid 14990): > 0.5 µg/mL
- MBC [4, 12]: ≥ 0.5 µg/mL
- MIC50 [5]: > 64 µg/mL
- MIC90 [5]: > 64 µg/mL
- Range of MICs [5]: > 64 mg/L
- MICs ([6]; Table C, ATCC S. epid 14990 (×2), solution 14 days old): 0.25
- MICs ([6]; Table E, ATCC S. epid 14990, fresh solution, * = skipped wells (second value), listed as Dimer): 0.3125 and 0.5
- MIC ([6]; Table F, ATCC S. epid 14990): 0.0312 µg/mL
- MIC [6, 12]: 0.0312 µg/mL
- MIC50 [7]: > 64 µg/mL
- MIC90 [7]: > 64 µg/mL
- Range of MICs [7]: > 64 mg/L
- MIC50 [8]: > 64 µg/mL
- MIC90 [8]: > 64 µg/mL
- Range of MICs [8]: ≥ 64 mg/L
- MIC50 ([9]; 12 strains): > 64 µg/mL
- MIC90 ([9]; 12 strains): > 64 µg/mL
- MIC ([9]; ATCC VSE 29212): > 64 µg/mL
- MIC50 ([10]; 12 strains): 64 µg/mL
- MIC90 ([10]; 12 strains): > 64 µg/mL
- Range of MICs ([10]; 12 strains): ≥ 64 mg/L
- MIC ([10]; ATCC VRE 51299): > 64 µg/mL
